Results published in patent publication US20230365546A1, “5-SUBSTITUTED INDOLE 3-AMIDE DERIVATIVES, PREPARATION METHOD AND USE THEREOF” (ORIGIANT PHARMACEUTICAL CO., LTD, priority 2020, published 2023).

How the values were obtained:
Test in all cases: Kinase Profiler 10 μM panel
[1] = target: SLK(h) (Homo sapiens (Human), UniProt Q9H2G2)
Method: (§1) In vitro kinase assays were conducted using Kinase Profiler services provided by Eurofins. The experimental method was as follows: the small molecule compound to be tested (0.001-10 μM), the protein kinase to be tested were incubated with a buffer containing substrate, 10 mM magnesium acetate, and [γ-^33P-ATP], the reaction was started by adding Mg\TPmix, after incubation for a period of time at room temperature, a 3% phosphate solution was added to the buffer to stop the reaction. Subsequently, 10 μL of the reaction mixture was quantitatively pipetted onto P30 filter paper, which was washed three times with 75 mM phosphate solution and then once with methanol. The P30 filter paper was air-dried and scintillation fluid was added for scintillation counting.

[2] = target: Lck(h) (Homo sapiens (Human), UniProt P06239)
Method: as §1

[3] = target: CDK7/cyclinH/MAT1(h) (Homo sapiens (Human), UniProt P50613)
Method: as §1

[4] = target: Abl (M351T)(h) (Homo sapiens (Human), UniProt P00519, M351T)
Method: as §1

[5] = target: CaMKIγ(h) (Homo sapiens (Human), UniProt Q96NX5)
Method: as §1

[6] = target: CaMKI(h) (Homo sapiens (Human), UniProt Q14012)
Method: as §1

[7] = target: Tie2(Y897S)(h) (Homo sapiens (Human), UniProt Q02763, Y897S)
Method: as §1

[8] = target: ErbB4(h) (Homo sapiens (Human), UniProt Q15303)
Method: as §1

[9] = target: CDK17/cyclinY(h) (Homo sapiens (Human), UniProt Q00537)
Method: as §1

[10] = target: ZAP-70(h) (Homo sapiens (Human), UniProt P43403)
Method: as §1

[11] = target: ULK3(h) (Homo sapiens (Human), UniProt Q6PHR2)
Method: as §1

[12] = target: KDR(h) (Homo sapiens (Human), UniProt P35968)
Method: as §1

[13] = target: PDHK4(h) (Homo sapiens (Human), UniProt Q16654)
Method: as §1

[14] = target: PI3 Kinase (p110d/p85a)(h) (Homo sapiens (Human), UniProt O00329)
Method: as §1

[15] = target: JAK3(h) (Homo sapiens (Human), UniProt P52333)
Method: as §1

[16] = target: Blk(m) (Mus musculus (Mouse), UniProt P16277)
Method: as §1

[17] = target: eEF-2K(h) (Homo sapiens (Human), UniProt O00418)
Method: as §1

[18] = target: CDK12/cyclinK(h) (Homo sapiens (Human), UniProt Q9NYV4)
Method: as §1

[19] = target: p70S6K(h) (Homo sapiens (Human), UniProt P23443)
Method: as §1

[20] = target: PAK5(h) (Homo sapiens (Human), UniProt Q9P286)
Method: as §1

[21] = target: PI3 Kinase (p110a/p65a)(m) (Mus musculus (Mouse), UniProt P42337)
Method: as §1

[22] = target: DYRK1A(h) (Homo sapiens (Human), UniProt Q13627)
Method: as §1

[23] = target: TAO3(h) (Homo sapiens (Human), UniProt Q9H2K8)
[24] = target: IR(h), activated (Homo sapiens (Human), UniProt P06213)
Method: as §1

[25] = target: PI3 Kinase (p120g)(h) (Homo sapiens (Human), UniProt P48736)
Method: as §1

[26] = target: NDR2(h) (Homo sapiens (Human), UniProt Q9Y2H1)
Method: as §1

[27] = target: PI3 Kinase (p110a(H1047R)/p85a)(h) (Homo sapiens (Human), UniProt P42336, H1047R)
Method: as §1

[28] = target: CLIK1(h) (Homo sapiens (Human), UniProt Q8TDR2)
Method: The experimental method was as follows: the small molecule compound to be tested (0.001-10 μM), the protein kinase to be tested were incubated with a buffer containing substrate, 10 mM magnesium acetate, and [γ-^33P-ATP], the reaction was started by adding Mg\TPmix, after incubation for a period of time at room temperature, a 3% phosphate solution was added to the buffer to stop the reaction. Subsequently, 10 μL of the reaction mixture was quantitatively pipetted onto P30 filter paper, which was washed three times with 75 mM phosphate solution and then once with methanol. The P30 filter paper was air-dried and scintillation fluid was added for scintillation counting.

[29] = target: ASK1(h) (Homo sapiens (Human), UniProt Q99683)
Method: as §1

[30] = target: Ret(V804M)(h) (Homo sapiens (Human), UniProt P07949, V804M)
Method: as §1

[31] = target: CSK(h) (Homo sapiens (Human), UniProt P41240)
Method: as §1

[32] = target: EphB3(h) (Homo sapiens (Human), UniProt P54753)
Method: as §1

[33] = target: CDK5/p35(h) (Homo sapiens (Human), UniProt Q00535)
Method: as §1

Chain of CDK17/cyclinY(h) (Q00537 whole entry): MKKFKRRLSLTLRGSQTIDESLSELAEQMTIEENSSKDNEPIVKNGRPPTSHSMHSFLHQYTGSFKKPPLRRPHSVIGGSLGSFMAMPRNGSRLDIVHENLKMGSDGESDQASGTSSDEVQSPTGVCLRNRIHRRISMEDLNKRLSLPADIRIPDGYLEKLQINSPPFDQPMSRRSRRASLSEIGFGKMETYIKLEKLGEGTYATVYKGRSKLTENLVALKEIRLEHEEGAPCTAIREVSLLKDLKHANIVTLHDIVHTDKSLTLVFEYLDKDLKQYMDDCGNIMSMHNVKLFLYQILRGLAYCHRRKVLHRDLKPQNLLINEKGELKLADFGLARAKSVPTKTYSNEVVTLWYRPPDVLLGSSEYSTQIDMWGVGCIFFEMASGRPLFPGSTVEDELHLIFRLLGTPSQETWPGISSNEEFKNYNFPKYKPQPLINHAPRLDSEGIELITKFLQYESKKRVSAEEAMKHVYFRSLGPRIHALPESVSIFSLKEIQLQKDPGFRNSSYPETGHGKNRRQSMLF
Chain of CDK17/cyclinY(h) (Q8ND76 whole entry partner): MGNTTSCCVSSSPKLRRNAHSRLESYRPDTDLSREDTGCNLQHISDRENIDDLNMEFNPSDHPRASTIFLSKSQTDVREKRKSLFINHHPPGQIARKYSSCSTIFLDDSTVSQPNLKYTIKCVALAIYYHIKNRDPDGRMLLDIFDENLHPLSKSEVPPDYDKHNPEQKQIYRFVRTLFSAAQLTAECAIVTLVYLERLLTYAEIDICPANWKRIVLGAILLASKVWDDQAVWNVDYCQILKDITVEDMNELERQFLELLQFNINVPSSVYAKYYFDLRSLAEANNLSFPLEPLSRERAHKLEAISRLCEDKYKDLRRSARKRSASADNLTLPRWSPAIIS
Chain of CSK(h) (P41240 whole entry): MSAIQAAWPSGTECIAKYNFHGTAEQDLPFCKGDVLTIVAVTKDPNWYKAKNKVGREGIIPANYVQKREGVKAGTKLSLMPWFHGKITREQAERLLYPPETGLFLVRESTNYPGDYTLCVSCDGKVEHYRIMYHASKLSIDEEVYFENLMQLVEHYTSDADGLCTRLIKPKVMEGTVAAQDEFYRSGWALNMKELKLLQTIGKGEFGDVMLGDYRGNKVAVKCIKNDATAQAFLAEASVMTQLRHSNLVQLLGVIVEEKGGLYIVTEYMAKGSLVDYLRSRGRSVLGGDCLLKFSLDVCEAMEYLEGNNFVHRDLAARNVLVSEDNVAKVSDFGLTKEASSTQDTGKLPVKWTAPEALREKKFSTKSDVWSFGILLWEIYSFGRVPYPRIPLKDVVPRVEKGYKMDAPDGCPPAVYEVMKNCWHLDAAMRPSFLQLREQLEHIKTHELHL
Chain of PI3 Kinase (p110a/p65a)(m) (P42337 whole entry): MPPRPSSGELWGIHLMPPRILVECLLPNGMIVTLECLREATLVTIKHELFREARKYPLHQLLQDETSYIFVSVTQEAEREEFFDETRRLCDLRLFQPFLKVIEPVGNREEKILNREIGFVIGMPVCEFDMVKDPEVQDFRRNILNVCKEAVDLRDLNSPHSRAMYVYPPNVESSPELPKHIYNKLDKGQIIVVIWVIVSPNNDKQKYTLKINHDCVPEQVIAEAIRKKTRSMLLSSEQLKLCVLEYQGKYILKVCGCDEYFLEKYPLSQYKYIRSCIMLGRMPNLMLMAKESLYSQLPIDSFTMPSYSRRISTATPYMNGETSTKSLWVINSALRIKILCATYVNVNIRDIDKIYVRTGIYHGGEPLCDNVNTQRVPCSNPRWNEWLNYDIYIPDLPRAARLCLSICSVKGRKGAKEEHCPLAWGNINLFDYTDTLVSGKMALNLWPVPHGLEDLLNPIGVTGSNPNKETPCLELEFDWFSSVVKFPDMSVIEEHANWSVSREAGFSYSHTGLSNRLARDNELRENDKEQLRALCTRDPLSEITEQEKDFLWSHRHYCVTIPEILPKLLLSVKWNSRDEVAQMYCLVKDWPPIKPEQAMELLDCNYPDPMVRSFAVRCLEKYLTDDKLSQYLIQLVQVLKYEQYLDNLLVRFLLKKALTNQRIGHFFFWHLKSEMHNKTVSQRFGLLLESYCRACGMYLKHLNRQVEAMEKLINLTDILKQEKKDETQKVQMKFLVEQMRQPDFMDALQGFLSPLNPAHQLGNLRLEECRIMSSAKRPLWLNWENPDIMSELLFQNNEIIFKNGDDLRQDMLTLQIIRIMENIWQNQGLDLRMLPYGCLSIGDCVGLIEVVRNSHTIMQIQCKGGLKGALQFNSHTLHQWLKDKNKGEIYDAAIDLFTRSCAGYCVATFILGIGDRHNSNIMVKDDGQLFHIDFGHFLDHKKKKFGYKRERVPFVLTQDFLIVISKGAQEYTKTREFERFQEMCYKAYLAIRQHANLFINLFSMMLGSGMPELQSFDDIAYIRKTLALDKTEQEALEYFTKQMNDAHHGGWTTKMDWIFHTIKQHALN
Chain of CLIK1(h) (Q8TDR2 whole entry): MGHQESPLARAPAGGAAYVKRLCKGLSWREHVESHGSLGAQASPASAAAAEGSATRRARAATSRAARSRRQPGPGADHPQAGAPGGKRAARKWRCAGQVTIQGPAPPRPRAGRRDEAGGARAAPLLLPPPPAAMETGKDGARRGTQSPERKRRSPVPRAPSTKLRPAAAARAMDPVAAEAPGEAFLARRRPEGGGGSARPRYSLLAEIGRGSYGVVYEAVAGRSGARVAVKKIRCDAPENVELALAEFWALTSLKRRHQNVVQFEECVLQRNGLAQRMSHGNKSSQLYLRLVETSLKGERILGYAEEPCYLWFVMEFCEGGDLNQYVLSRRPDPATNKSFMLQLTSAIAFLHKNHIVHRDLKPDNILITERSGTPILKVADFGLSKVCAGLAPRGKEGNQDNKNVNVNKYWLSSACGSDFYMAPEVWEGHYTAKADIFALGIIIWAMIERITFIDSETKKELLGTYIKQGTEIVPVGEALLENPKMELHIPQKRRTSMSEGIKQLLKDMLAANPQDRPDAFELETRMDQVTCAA
Chain of p70S6K(h) (P23443 whole entry): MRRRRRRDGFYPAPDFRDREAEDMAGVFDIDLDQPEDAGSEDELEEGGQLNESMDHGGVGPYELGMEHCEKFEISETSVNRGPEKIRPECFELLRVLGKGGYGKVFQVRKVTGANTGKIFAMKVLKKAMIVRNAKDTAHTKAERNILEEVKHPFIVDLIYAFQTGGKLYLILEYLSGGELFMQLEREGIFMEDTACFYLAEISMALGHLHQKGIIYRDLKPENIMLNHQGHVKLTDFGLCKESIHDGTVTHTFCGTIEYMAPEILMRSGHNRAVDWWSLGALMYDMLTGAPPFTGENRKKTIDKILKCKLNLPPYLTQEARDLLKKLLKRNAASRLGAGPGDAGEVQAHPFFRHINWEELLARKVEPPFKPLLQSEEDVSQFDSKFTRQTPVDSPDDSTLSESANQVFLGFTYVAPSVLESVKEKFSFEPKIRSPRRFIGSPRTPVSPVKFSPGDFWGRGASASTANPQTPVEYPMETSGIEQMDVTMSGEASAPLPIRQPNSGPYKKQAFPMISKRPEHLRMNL
Chain of KDR(h) (P35968 20-1356): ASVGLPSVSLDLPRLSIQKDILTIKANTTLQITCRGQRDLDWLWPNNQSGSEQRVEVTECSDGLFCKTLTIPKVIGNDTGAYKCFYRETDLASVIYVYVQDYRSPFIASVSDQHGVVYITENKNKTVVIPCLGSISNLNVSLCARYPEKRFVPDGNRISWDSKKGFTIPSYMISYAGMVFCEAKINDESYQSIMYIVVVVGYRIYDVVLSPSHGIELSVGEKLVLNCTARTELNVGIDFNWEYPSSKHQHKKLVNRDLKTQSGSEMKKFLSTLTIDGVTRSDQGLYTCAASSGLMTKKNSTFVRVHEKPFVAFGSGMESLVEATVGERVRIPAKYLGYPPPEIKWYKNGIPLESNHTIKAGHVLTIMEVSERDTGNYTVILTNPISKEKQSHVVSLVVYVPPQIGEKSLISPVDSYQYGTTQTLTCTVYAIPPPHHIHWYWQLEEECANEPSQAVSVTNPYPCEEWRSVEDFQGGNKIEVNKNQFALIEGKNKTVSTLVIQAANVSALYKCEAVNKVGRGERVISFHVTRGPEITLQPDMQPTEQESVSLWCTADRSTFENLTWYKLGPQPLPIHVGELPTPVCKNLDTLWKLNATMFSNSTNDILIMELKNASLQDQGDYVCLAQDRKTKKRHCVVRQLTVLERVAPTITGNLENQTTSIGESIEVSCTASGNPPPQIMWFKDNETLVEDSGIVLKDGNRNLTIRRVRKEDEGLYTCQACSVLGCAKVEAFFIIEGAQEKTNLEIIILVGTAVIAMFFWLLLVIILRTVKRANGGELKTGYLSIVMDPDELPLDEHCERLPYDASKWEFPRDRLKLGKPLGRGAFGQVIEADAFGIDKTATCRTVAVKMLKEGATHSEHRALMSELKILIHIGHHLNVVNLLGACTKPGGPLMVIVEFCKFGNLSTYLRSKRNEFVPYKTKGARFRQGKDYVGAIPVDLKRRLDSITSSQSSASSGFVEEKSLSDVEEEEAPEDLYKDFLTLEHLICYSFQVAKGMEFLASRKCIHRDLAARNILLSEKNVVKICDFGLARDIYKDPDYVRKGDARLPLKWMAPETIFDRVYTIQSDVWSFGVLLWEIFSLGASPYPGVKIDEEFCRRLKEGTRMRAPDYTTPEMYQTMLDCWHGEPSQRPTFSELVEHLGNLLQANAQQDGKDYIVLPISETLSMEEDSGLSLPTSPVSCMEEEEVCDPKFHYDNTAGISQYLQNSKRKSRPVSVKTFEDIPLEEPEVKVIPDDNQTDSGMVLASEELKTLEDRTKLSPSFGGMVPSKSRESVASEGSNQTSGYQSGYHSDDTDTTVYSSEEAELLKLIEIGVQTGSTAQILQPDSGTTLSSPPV

Q: Which results are given for `C[C@H](NC(=O)c1cn(C)c2ccc(-c3ccn4nc(NC(=O)C5CC5)nc4c3)cc12)c1cccc(F)c1` [Compound 94, (S)-5-(2-(cyclopropanecarboxamido)-[1,2,4]triazolo[1,5-a]pyridin-7-yl)-N-(1-(3-fluorophenyl)ethyl)-1-methyl-1H-indole-3-carboxamide]?
A: Inhibition ratio/% [1]: 15%; Inhibition ratio/% [2]: 44%; Inhibition ratio/% [3]: 53%; Inhibition ratio/% [4]: 29%; Inhibition ratio/% [5]: −13%; Inhibition ratio/% [6]: 49%; Inhibition ratio/% [7]: 18%; Inhibition ratio/% [8]: 63%; Inhibition ratio/% [9]: 70%; Inhibition ratio/% [10]: 1%; Inhibition ratio/% [11]: 3%; Inhibition ratio/% [12]: −12%; Inhibition ratio/% [13]: −18%; Inhibition ratio/% [14]: −1%; Inhibition ratio/% [15]: 38%; Inhibition ratio/% [16]: 77%; Inhibition ratio/% [17]: 26%; Inhibition ratio/% [18]: −8%; Inhibition ratio/% [19]: −18%; Inhibition ratio/% [20]: 47%; Inhibition ratio/% [21]: 10%; Inhibition ratio/% [22]: 2%; Inhibition ratio/% [23]: 6%; Inhibition ratio/% [24]: 35%; Inhibition ratio/% [25]: −12%; Inhibition ratio/% [26]: 46%; Inhibition ratio/% [27]: 24%; Inhibition ratio/% [28]: 22%; Inhibition ratio/% [29]: 38%; Inhibition ratio/% [30]: 45%; Inhibition ratio/% [31]: 60%; Inhibition ratio/% [32]: 26%; Inhibition ratio/% [33]: −8%

Q: Which Inhibition ratio [1] does the source give for `C[C@H](NC(=O)c1c[nH]c2ccc(-c3ccc4nc(NC(=O)C5CC5)sc4c3)cc12)c1cccc(F)c1` [Compound 34, (S)-5-(2-(cyclopropanecarboxamido)benzo[d]thiazol-6-yl)-N-(1-(3-fluorophenyl)ethyl)-1H-indole-3-carboxamide] here?
A: Its Inhibition ratio is 50%.

Q: What about the Inhibition ratio [2] of the same compound?
A: Its Inhibition ratio is 65%.

Q: What about the Inhibition ratio [3] of the same compound?
A: The Inhibition ratio was 3%.

Q: What about the Inhibition ratio [4] of the same compound?
A: Its Inhibition ratio is 97%.

Q: What about the Inhibition ratio [5] of the same compound?
A: Its Inhibition ratio is 7%.

Q: What about the Inhibition ratio [6] of the same compound?
A: Its Inhibition ratio is 5%.

Q: And the Inhibition ratio [7]?
A: Its Inhibition ratio is 88%.

Q: And the Inhibition ratio [8]?
A: The Inhibition ratio was 22%.

Q: And the Inhibition ratio [9]?
A: The Inhibition ratio was −11%.

Q: What about the Inhibition ratio [10] of the same compound?
A: The Inhibition ratio was 8%.

Q: What about the Inhibition ratio [11] of the same compound?
A: The Inhibition ratio was 30%.

Q: And the Inhibition ratio [12]?
A: Its Inhibition ratio is 83%.

Q: And the Inhibition ratio [13]?
A: The Inhibition ratio was 72%.

Q: And the Inhibition ratio [14]?
A: The Inhibition ratio was 54%.

Q: And the Inhibition ratio [15]?
A: Its Inhibition ratio is 23%.

Q: What about the Inhibition ratio [16] of the same compound?
A: The Inhibition ratio was 65%.

Q: What about the Inhibition ratio [17] of the same compound?
A: Its Inhibition ratio is −41%.

Q: What about the Inhibition ratio [18] of the same compound?
A: The Inhibition ratio was 21%.

Q: What about the Inhibition ratio [19] of the same compound?
A: Its Inhibition ratio is 25%.

Q: And the Inhibition ratio [20]?
A: The Inhibition ratio was −2%.

Q: What about the Inhibition ratio [21] of the same compound?
A: Its Inhibition ratio is 30%.

Q: And the Inhibition ratio [22]?
A: Its Inhibition ratio is 47%.

Q: And the Inhibition ratio [23]?
A: Its Inhibition ratio is 62%.

Q: And the Inhibition ratio [24]?
A: The Inhibition ratio was 13%.

Q: And the Inhibition ratio [25]?
A: Its Inhibition ratio is 35%.

Q: And the Inhibition ratio [26]?
A: The Inhibition ratio was 23%.

Q: What about the Inhibition ratio [27] of the same compound?
A: The Inhibition ratio was 34%.

Q: And the Inhibition ratio [28]?
A: The Inhibition ratio was 22%.

Q: And the Inhibition ratio [29]?
A: Its Inhibition ratio is 12%.

Q: And the Inhibition ratio [30]?
A: Its Inhibition ratio is 98%.

Q: And the Inhibition ratio [31]?
A: Its Inhibition ratio is 13%.

Q: And the Inhibition ratio [32]?
A: Its Inhibition ratio is 3%.

Q: And the Inhibition ratio [33]?
A: Its Inhibition ratio is −7%.
